Data: patent publication US20240218022A1, “ANTI-VISTA MACROCYCLIC PEPTIDES AND COMPOSITIONS” (BRISTOL-MYERS SQUIBB COMPANY, priority 2022, published 2024)
Like-named read-outs stand apart in the source and are kept apart here. Starred links: 1 amine or outer side, 2 acyl side, 3 side chain; linkers in the order of their positions; H or OH if unused. Positions of bridges follow the written chain, without caps; N, C: chain ends. Non-standard residues stand in square brackets, D forms with d. Residues, ends and D or L forms follow the SMILES beside them. ξ: configuration not given here. γGlu = O=C(O)[C@H](CCC(=O)[*:2])N[*:1]; 2Nal = N[C@@H](Cc1ccc2ccccc2c1)C(=O)O; βAsp = O=C(O)[C@H](CC(=O)[*:2])N[*:1]; Ahp(2) = CCCCC[C@H](N)C(=O)O; NMeNle = CCCC[C@H](NC)C(=O)O; Tle = CC(C)(C)[C@H](N)C(=O)O; NHexGly = CCCCCCNCC(=O)O; Nle = CCCC[C@H](N)C(=O)O; Orn = NCCC[C@H](N)C(=O)O; Aun = NCCCCCCCCCCC(=O)O; AEEA = NCCOCCOCC(=O)O; ξP = O=C(O)C1CCCN1

Target: T1, mouse VISTA (mVISTA) (Mus musculus, UniProt Q9D659)
T1 construct: expressed in transfected cells; host or cells: Human embryonic kidney 293T cells
T1 sequence (Q9D659 33-308): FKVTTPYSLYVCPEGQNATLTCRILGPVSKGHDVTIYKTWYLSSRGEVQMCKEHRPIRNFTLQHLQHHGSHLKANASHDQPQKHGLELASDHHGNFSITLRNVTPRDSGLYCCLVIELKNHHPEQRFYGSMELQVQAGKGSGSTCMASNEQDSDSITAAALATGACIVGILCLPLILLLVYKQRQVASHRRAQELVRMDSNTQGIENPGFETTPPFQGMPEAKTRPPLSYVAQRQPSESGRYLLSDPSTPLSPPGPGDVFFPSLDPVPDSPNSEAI
Assay: Cell-Based Binding High-Content Assay For mVISTA (HC CBA mVISTA)
Summary of the method: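 Read-out: Alexa 647–streptavidin signal imaged on fixed, Hoechst-stained mVISTA-293T cells, with IC50 taken from a four-parameter logistic curve. Compounds competed with 2 nM biotinylated peptide for 30 min at room temperature, tested under both no-wash and wash (1 h compound, media exchange, 1 h) formats.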

[1] = cell-based binding high-content assay, mVISTA, read-out: HC CBA miPrISTA IC50

Row | IC50 [1] [nM] | IC50 (read-out: HC CBA mVISTA IC50) [nM] | Structure (SMILES)
1 | 20 | – | CCCCCCN1CC(=O)N[C@@H](Cc2ccc(O)cc2)C(=O)N[C@@H](C)C(=O)N[C@@H](CC(N)=O)C(=O)N[C@@H](CCCNC(=N)N)C(=O)N(C)[C@@H](CCCC)C(=O)N[C@@H](CCCCC)C(=O)N2CCC[C@H]2C(=O)N[C@@H](C(C)(C)C)C(=O)N[C@@H](CC(=O)O)C(=O)N[C@H](C(=O)N[C@@H](CC(=O)NCCOCCOCC(=O)N[C@@H](CC(=O)O)C(=O)NCCOCCOCC(=O)NCCCCCCCCCCC(=O)O)C(=O)O)CSCC(=O)N[C@@H](Cc2ccccc2)C(=O)N[C@@H](Cc2ccc(O)cc2)C(=O)N[C@@H](CC(=O)O)C1=O [compound 2096] ({CH2CO}-FYD[NHexGly]YANR[NMeNle][Ahp(2)]P[Tle]DC[βAsp][AEEA]D[AEEA][Aun]-OH; thioether N-14)
2 | 22.2 | – | CCCCCCN1CC(=O)N[C@@H](Cc2ccc(O)cc2)C(=O)N[C@@H](C)C(=O)N[C@@H](CC(N)=O)C(=O)N[C@@H](CCCN)C(=O)N(C)[C@@H](CCCC)C(=O)N[C@@H](CCCCC)C(=O)N2CCC[C@H]2C(=O)N[C@@H](C(C)(C)C)C(=O)N[C@@H](CC(=O)O)C(=O)N[C@H](C(=O)N[C@@H](CC(=O)NCCOCCOCC(=O)N[C@@H](CC(=O)O)C(=O)NCCOCCOCC(=O)NCCCCCCCCCCC(=O)O)C(=O)O)CSCC(=O)N[C@@H](Cc2ccccc2)C(=O)N[C@@H](Cc2c[nH]c3ccccc23)C(=O)N[C@@H](CC(=O)O)C1=O [compound 2097] ({CH2CO}-FWD[NHexGly]YAN[Orn][NMeNle][Ahp(2)]P[Tle]DC[βAsp][AEEA]D[AEEA][Aun]-OH; thioether N-14)
3 | 36.6 | – | CCCCCCN1CC(=O)N[C@@H](Cc2ccc(O)cc2)C(=O)N[C@@H](C)C(=O)N[C@@H](CC(N)=O)C(=O)N[C@@H](CCCNC(=N)N)C(=O)N(C)[C@@H](CCCC)C(=O)N[C@@H](CCCCC)C(=O)N2CCC[C@H]2C(=O)N[C@@H](C(C)(C)C)C(=O)N[C@@H](CO)C(=O)N[C@H](C(=O)N[C@@H](CC(=O)NCCOCCOCC(=O)N[C@@H](CC(=O)O)C(=O)NCCOCCOCC(=O)NCCCCCCCCCCC(=O)O)C(=O)O)CSCC(=O)N[C@@H](Cc2ccccc2)C(=O)N[C@@H](Cc2c[nH]c3ccccc23)C(=O)N[C@@H](CC(=O)O)C1=O [compound 2098] ({CH2CO}-FWD[NHexGly]YANR[NMeNle][Ahp(2)]P[Tle]SC[βAsp][AEEA]D[AEEA][Aun]-OH; thioether N-14)
4 | – | 14.4 | CCCCCCN1CC(=O)N[C@@H](Cc2ccc(O)cc2)C(=O)N[C@@H](CCCC)C(=O)N[C@@H](CC(=O)O)C(=O)N[C@@H](CCCNC(=N)N)C(=O)N[C@@H](CC(C)C)C(=O)N[C@@H](CCCCC)C(=O)N2CCCC2C(=O)N[C@@H](C(C)C)C(=O)N[C@@H](CC(N)=O)C(=O)N[C@H](C(=O)NCC(=O)N[C@@H](CC(=O)NCCOCCOCC(=O)N[C@@H](CC(=O)O)C(=O)NCCOCCOCC(=O)NCCCCCCCCCCC(=O)O)C(=O)O)CSCC(=O)N[C@@H](Cc2ccccc2)C(=O)N[C@@H](Cc2ccc(O)cc2)C(=O)N[C@@H](CC(=O)O)C1=O (some centres unmarked) [compound 2108] ({CH2CO}-FYD[NHexGly]Y[Nle]DRL[Ahp(2)][ξP]VNCG[βAsp][AEEA]D[AEEA][Aun]-OH; thioether N-14)
5 | – | 17.9 | CCCCCCN1CC(=O)N[C@@H](Cc2ccc(O)cc2)C(=O)N[C@@H](CCCC)C(=O)N[C@@H](CC(N)=O)C(=O)N[C@@H](CCCNC(=N)N)C(=O)N[C@@H](CC(C)C)C(=O)N[C@@H](CCCCC)C(=O)N2CCC[C@@H]2C(=O)N[C@@H](C(C)C)C(=O)N[C@@H](CO)C(=O)N[C@H](C(=O)NCC(=O)N[C@@H](CCC(=O)NCCOCCOCC(=O)N[C@@H](CC(=O)O)C(=O)NCCOCCOCC(=O)NCCCCCCCCCCC(=O)O)C(=O)O)CSCC(=O)N[C@@H](Cc2ccc3ccccc3c2)C(=O)N[C@@H](Cc2ccc(O)cc2)C(=O)N[C@@H](CC(=O)O)C1=O [compound 2123] ({CH2CO}-[2Nal]YD[NHexGly]Y[Nle]NRL[Ahp(2)][dP]VSCG[γGlu][AEEA]D[AEEA][Aun]-OH; thioether N-14)
